Measured values: US7091351B2, “Vanadium compounds for treating cancer” (Parker Hughes Institute, priority 1998, dated 2006)
Like-named read-outs stand apart in the source and are kept apart here.

Tests used:
Type in all cases: cell-based, human
[1] = test system: NALM-6 cells; assay: MTT cytotoxicity assay of oxovanadium(IV) compounds, NALM-6; details: 48 hr
Procedure: (§1) The cytotoxicity of oxovanadium (W) complexes listed in Table 6 were tested against 9 different human cancer cell lines was performed using the MTT (3-[4,5-dimethylthiazol-2-yl]-2,5-diphenyl tetrazolium bromide) assay (Boehringer Mannheim Corp., Indianapolis, Ind.) as described previously (20). Briefly, exponentially growing tumor cells were seeded into a 96-well plate at a density of 4×10^4cells/well and incubated with medium containing the oxovanadium(IV) compounds concentrations ranging from 0.1 to 250 μM for 48 hours at 37° C. in a humidified 5% CO2 atmosphere. Triplicate wells were used for each treatment. To each well, 10 μl of MTT (0.5 mg/ml final concentration) was added and the plates were incubated at 37° C. for 4 hours to allow MTT to form formazan crystals by reacting with metabolically active cells . The formazan crystals were solubilized overnight at 37° C. in a solution containing 10% SDS in 0.01 M HCl. The absorbence of each well was measured in a microplate reader (Labsystems) at 540 nm and a reference wavelength of 690 nm. To translate the OD540 values into the number of live cells in each well, the OD540 values were compared to those on standard OD540—versus—cell number curves generated for each cell line. The percent survival was calculated using the formula: % survival=Live cell number[test]/Live cell number [control]×100. The IC50 values were calculated by non-linear regression analysis using an Graphpad Prism software version 2.0 (Graphpad Software, Inc., San Diego, Calif.).

[2] = test system: MOLT-3 cells; assay: MTT cytotoxicity assay of oxovanadium(IV) compounds, MOLT-3; details: 48 hr
Procedure: as §1

[3] = test system: HS445 Hodgkin's lymphoma cells; assay: MTT cytotoxicity assay of oxovanadium(IV) compounds, HS445; details: 48 hr
Procedure: as §1

[4] = test system: HL-60 cells; assay: MTT cytotoxicity assay of oxovanadium(IV) compounds, HL-60; details: 48 hr
Procedure: as §1

[5] = test system: U266BL multiple myeloma cells; assay: MTT cytotoxicity assay of oxovanadium(IV) compounds, U266BL; details: 48 hr
Procedure: as §1

[6] = test system: ARH77 multiple myeloma cells; assay: MTT cytotoxicity assay of oxovanadium(IV) compounds, ARH77; details: 48 hr
Procedure: as §1, with “Briefly, exponentially growing tumor cells were seeded into a 96-well plate at a density of 4×10^4cells/well and incubated with medium containing the oxovanadium(IV) compounds concentrations ranging from 0.1 to 250 μM for 48 hours at 37° C. in a humidified 5% CO2 atmosphere.” left out

[7] = test system: HS-SULTAN multiple myeloma cells; assay: MTT cytotoxicity assay of oxovanadium(IV) compounds, HS-SULTAN; details: 48 hr
Procedure: as §1

[8] = test system: 833-K testicular cancer cells; assay: Cytotoxic activity of oxovanadium(IV) compounds, 833-K
Procedure: as §1

[9] = test system: 64cp5 testicular cancer cells; assay: Cytotoxic activity of oxovanadium(IV) compounds, 64cp5
Procedure: as §1

[10] = test system: Tera-2 testicular cancer cells; assay: Cytotoxic activity of oxovanadium(IV) compounds, TERA-2
Procedure: as §1

[11] = test system: NTD1 testicular cancer cells; assay: Cytotoxic activity of oxovanadium(IV) compounds, NTD1
Procedure: as §1

[12] = test system: U373 glioblastoma cells; assay: Cytotoxic activity of oxovanadium(IV) compounds, U373
Procedure: as §1

[13] = test system: BT20 breast cancer cells; assay: Cytotoxic activity of oxovanadium(IV) compounds, BT20
Procedure: as §1

[14] = test system: PC3 prostate cancer cells; assay: Cytotoxic activity of oxovanadium(IV) compounds, PC3
Procedure: as §1

[15] = read-out: Cytotoxic Activity 833-K
[16] = read-out: Cytotoxic Activity 64cp5
[17] = read-out: Cytotoxic Activity TERA-2
[18] = read-out: Cytotoxic Activity NTD1
[19] = read-out: Cytotoxic Activity U373
[20] = read-out: Cytotoxic Activity BT20
[21] = read-out: Cytotoxic Activity PC3

Compound	IC50 [1] [µM]	IC50 [2] [µM]	IC50 [3] [µM]	IC50 [4] [µM]	IC50 [5] [µM]	IC50 [6] [µM]	IC50 [7] [µM]	IC50 [8, 15] [µM]	IC50 [9, 16] [µM]	IC50 [10, 17] [µM]	IC50 [11, 18] [µM]	IC50 [12, 19] [µM]	IC50 [13, 20] [µM]	IC50 [14, 21] [µM]	further results
CC(=O)c1cc(Br)ccc1[O][V](=[O])[O]c1ccc(Br)cc1C(C)=O [Compound 40, bis(5′-bromo-2′-hydroxyacetophenone)oxovanadium(IV)]	17.4 ± 0.9	41.8 ± 3.9	96.5 ± 6.4	> 100	98.1 ± 6.7	> 100	78.4 ± 5.8	> 100	> 100	35.4	> 100	> 100	> 100	–	–
(diaqua) (1,10-phenanthroline)oxovanadium(IV) sulfate [Compound 26]	3.4 ± 0.2	2.7 ± 0.2	6.3 ± 1.8	3.2 ± 1.1	3.5 ± 0.5	15.6 ± 3.2	11.2 ± 2.2	12.8	8.5	> 100	> 100	7.7	6.6	11.2	–
(diaqua)(2,2′ bipyridyl)oxovanadium(IV) sulfate [Compound 34]	14.9 ± 0.6	13.1 ± 1.1	41.7 ± 5.4	> 100	30.4 ± 7.8	> 100	62.8 ± 2.3	–	–	–	–	–	–	–	IC50 [8]: > 100 µM; IC50 [9]: > 100 µM; IC50 [10]: > 100 µM; IC50 [11]: > 100 µM; IC50 [12]: 58.4 µM; IC50 [13]: 51.2 µM; IC50 [14]: 55.8 µM
(diaqua)(2,2′-bipyrimidine)oxovanadium(IV) sulfate [Compound 38]	12.1 ± 1.6	27.7 ± 2.5	96.5 ± 8.6	> 100	91.2 ± 9.9	> 100	> 100	> 100	> 100	74.3	> 100	> 100	> 100	–	–
(diaqua)(4,4′-dimethyl-2,2′-bipyridyl)oxovanadium(IV) sulfate [Compound 36]	8.5 ± 0.5	8.2 ± 0.5	27.8 ± 3.4	38.6 ± 4.5	38.4 ± 3.2	> 100	65.1 ± 6.1	> 100	> 100	> 100	> 100	> 100	> 100	–	–
(diaqua)(5-chloro-1,10-phenanthroline)oxovanadium(IV) sulfate [Compound 30]	3.6 ± 0.07	3.4 ± 0.03	7.5 ± 2.5	15.3 ± 4.9	8.5 ± 1.2	30.3 ± 5.6	9.9 ± 5.4	12.8	10.9	18.1	> 100	22.4	18.2	12.4	–
(diaqua)(5-nitro-1,10-phenanthroline)oxovanadium(IV) sulfate [Compound 32]	4.1 ± 0.4	2.3 ± 0.3	9.1 ± 2.5	4.9 ± 1.2	18.1 ± 5.1	5.4 ± 1.5	14.5 ± 2.5	11.5	25.4	7.2	20.2	20.5	13.7	12.9	–
bis(1,10-phenanthroline)sulfatooxovanadium(IV) [Compound 27]	0.97 ± 0.1	1.4 ± 0.04	5.8 ± 1.2	4.6 ± 1.4	2.2 ± 0.6	3.3 ± 0.8	4.4 ± 0.8	7.5	18.5	37.6	> 100	6.8	7.2	10.8	–
bis(2,2′-bipyridyl)sulfatooxovanadium(IV) [Compound 35]	15.5 ± 3.8	14.2 ± 3.8	21.6 ± 4.3	31.4 ± 6.9	32.1 ± 5.2	26.8 ± 5.4	35.4 ± 3.3	96.2	> 100	> 100	> 100	> 100	70.8	56.2	–
bis(2,2′-bipyrimidine)sulfatooxovanadium(IV) [Compound 39]	12.2 ± 2.3	35.1 ± 4.7	98.4 ± 9.1	> 100	99.1 ± 8.1	> 100	> 100	> 100	> 100	> 100	> 100	> 100	> 100	–	–
bis(4,4′-dimethyl-2,2′-bipyridyl) sulfatooxovanadium(IV) [Compound 37]	3.9 ± 0.3	4.8 ± 0.3	12.6 ± 3.3	28.4 ± 3.8	13.3 ± 5.1	58.3 ± 6.8	11.4 ± 2.2	34.9	> 100	> 100	> 100	25.6	15.7	–	–
bis(5-chloro-1,10-phenanthroline)sulfatooxovanadium(IV) [Compound 31]	1.6 ± 0.03	2.1 ± 0.2	5.2 ± 1.1	5.3 ± 1.8	3.7 ± 1.1	–	5.8 ± 0.6	4.6	> 100	24.2	50.1	6.3	5.4	4.6	–
bis(5-nitro-1,10-phenanthroline)sulfatooxovanadium(IV) [Compound 33]	0.7 ± 0.01	1.4 ± 0.06	2.3 ± 0.6	2.6 ± 0.4	7.2 ± 1.1	5.7 ± 1.3	13.8 ± 3.6	1.1	5.9	2.6	9.1	7.2	5.6	6.1	–
